Reference: the Kinase Knowledgebase extract (Sharma et al. 2016)

Molecular target: MAPK14 (human) (UniProt Q16539)
Assay: Enzyme Assay

MAPK14 (human), sequence (Q16539 whole entry, looked up): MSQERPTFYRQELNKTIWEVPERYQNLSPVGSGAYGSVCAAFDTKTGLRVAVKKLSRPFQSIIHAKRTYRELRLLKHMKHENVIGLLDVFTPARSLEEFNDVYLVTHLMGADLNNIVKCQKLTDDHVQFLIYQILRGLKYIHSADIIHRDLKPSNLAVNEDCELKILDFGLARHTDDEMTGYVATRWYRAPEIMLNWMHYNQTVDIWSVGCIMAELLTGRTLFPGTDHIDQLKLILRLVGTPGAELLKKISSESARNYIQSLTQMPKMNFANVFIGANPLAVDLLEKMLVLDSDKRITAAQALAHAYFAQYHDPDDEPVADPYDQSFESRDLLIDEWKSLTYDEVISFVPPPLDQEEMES

| SMILES | IC50 [nM] |
| --- | --- |
| CN1CCCC[C@H]1c1nnc2ccc(O[C@@H]3CC[C@H](NC(=O)Nc4cc(C(C)(C)C)nn4-c4ccc(CO)cc4)c4ccccc43)cn12 | < 10 |
| CN(C)CCn1cc(-n2nc(C(C)(C)C)cc2NC(=O)N[C@H]2CC[C@@H](Oc3ccc4nnc(N5CCCCC5)n4c3)c3ccccc32)cn1 | < 10 |
| Cc1ccc(-n2nc(C(C)(C)C)cc2NC(=O)N[C@H]2CC[C@@H](Oc3ccc4nnc(N5CCC[C@@H]5CO)n4c3)c3ccccc32)cc1 | < 10 |
| Cc1ccc(-n2nc(C(C)(C)C)cc2NC(=O)N[C@H]2CC[C@@H](Oc3ccc4nnc(N5CCC[C@H](O)C5)n4c3)c3ccccc32)cc1 | < 10 |
| C[C@@H]1CCC[C@H](C)N1c1nnc2ccc(O[C@@H]3CC[C@H](NC(=O)Nc4cc(F)cc(N5CCOCC5)c4)c4ccccc43)cn12 | < 10 |
| Cc1ccc(-n2nc(C(C)(C)C)cc2NC(=O)N[C@H]2CC[C@@H](Oc3ccc4nnc(N5CCCN(C)CC5)n4c3)c3ccccc32)cc1 | < 10 |
| Cc1ccc(-n2nc(C(C)(C)C)cc2NC(=O)N[C@H]2CC[C@@H](Oc3ccc4nnc(N(C)C)n4c3)c3ccccc32)cc1 | < 10 |
| C[C@H]1CCCCN1c1nnc2ccc(O[C@@H]3CC[C@H](NC(=O)Nc4cc(C(C)(C)C)on4)c4ccccc43)cn12 | < 10 |
| C[C@H]1CCCCN1c1nnc2ccc(O[C@@H]3CC[C@H](NC(=O)Nc4cc(C(C)(C)C)nn4-c4ccc(CN5CCCCC5)cc4)c4ccccc43)cn12 | < 10 |
| C[C@@H]1CCCCN1c1nnc2ccc(O[C@@H]3CC[C@H](NC(=O)Nc4cc(C(C)(C)C)nn4-c4cccc(OCCN(C)C)c4)c4ccccc43)cn12 | < 10 |
| CC(C)(C)c1cc(NC(=O)N[C@H]2CC[C@@H](Oc3ccc4nnc(N5CCCCC5)n4c3)c3ccccc32)n(-c2cccc(CN3CCN(CCO)CC3)c2)n1 | < 10 |
| Cc1ccc(-n2nc(C(C)(C)C)cc2NC(=O)N[C@H]2CC[C@@H](Oc3ccc4nnc([C@]5(CO)CCCN5C)n4c3)c3ccccc32)cc1 | < 10 |
| C[C@H]1CCCCN1c1nnc2ccc(O[C@@H]3CC[C@H](NC(=O)Nc4cc(C(C)(C)C)nn4-c4cccc(OCCN(C)C)c4)c4ccccc43)cn12 | < 10 |
| C[C@@H]1CCC[C@H](C)N1c1nnc2ccc(O[C@@H]3CC[C@H](NC(=O)Nc4cc(C(C)(C)C)nn4CCO)c4ccccc43)cn12 | < 10 |
| CC(C)(C)c1cc(NC(=O)N[C@H]2CC[C@@H](Oc3ccc4nnc(N5CCCCC5)n4c3)c3ccccc32)n(-c2cccc(CO)c2)n1 | < 10 |
| Cc1ccc(-n2nc(C(C)(C)C)cc2NC(=O)N[C@H]2CC[C@@H](Oc3ccc4nnc(-c5cccc(CN6CCOCC6)c5)n4c3)c3ccccc32)cc1 | < 10 |
| CC(C)(C)c1cc(NC(=O)N[C@H]2CC[C@@H](Oc3ccc4nnc(N5CCCCC5)n4c3)c3ccccc32)n(-c2cccc(CN3CCC(O)CC3)c2)n1 | < 10 |
| C[C@@H]1CCC[C@H](C)N1c1nnc2ccc(O[C@@H]3CC[C@H](NC(=O)Nc4cc(C(C)(C)C)nn4CCN4CCOCC4)c4ccccc43)cn12 | < 10 |
| C[C@H]1CCCCN1c1nnc2ccc(O[C@@H]3CC[C@H](NC(=O)Nc4cc(C(C)(C)C)nn4CCO)c4ccccc43)cn12 | < 10 |
| CC(C)(C)c1cc(NC(=O)N[C@H]2CC[C@@H](Oc3ccc4nnc(N5CCCCC5)n4c3)c3ccccc32)n(-c2ccc(CO)cc2)n1 | < 10 |
| Cc1ccc(-n2nc(C(C)(C)C)cc2NC(=O)N[C@H]2CC[C@@H](Oc3ccc4nnc(N5CCC(CCO)CC5)n4c3)c3ccccc32)cc1 | < 10 |

| SMILES | IC50 [nM] |
| --- | --- |
| Cc1ccc(-n2nc(C(C)(C)C)cc2NC(=O)N[C@H]2CC[C@@H](Oc3ccc4nnc(C5CCNCC5)n4c3)c3ccccc32)cc1 | < 10 |
| Cc1ccc(-n2nc(C(C)(C)C)cc2NC(=O)N[C@H]2CC[C@@H](Oc3ccc4nnc(CC5CCN(CC(F)F)CC5)n4c3)c3ccccc32)cc1 | < 10 |
| C[C@H]1CCCCN1c1nnc2ccc(O[C@@H]3CC[C@H](NC(=O)Nc4cc(C(C)(C)C)nn4-c4cccc(CCN5CCOCC5)c4)c4ccccc43)cn12 | < 10 |
| Cc1ccc(-n2nc(C(C)(C)C)cc2NC(=O)N[C@H]2CC[C@@H](Oc3ccc4nnc([C@@H]5CCCN(C)C5)n4c3)c3ccccc32)cc1 | < 10 |
| Cc1ccc(-n2nc(C(C)(C)C)cc2NC(=O)N[C@H]2CC[C@@H](Oc3ccc4nnc([C@H]5CCCN5C)n4c3)c3ccccc32)cc1 | < 10 |
| CC(C)(C)c1cc(NC(=O)N[C@H]2CC[C@@H](Oc3ccc4nnc(N5CCCCC5)n4c3)c3ccccc32)n(-c2ccc(C#N)cc2)n1 | < 10 |
| Cc1ccc(-n2nc(C(C)(C)C)cc2NC(=O)N[C@H]2CC[C@@H](Oc3ccc4nnc(N5CCC[C@H]5CO)n4c3)c3ccccc32)cc1 | < 10 |
| Cc1ccc(-n2nc(C(C)(C)C)cc2NC(=O)N[C@H]2CC[C@@H](Oc3ccc4nnc(C(C)(C)N5CCCC5)n4c3)c3ccccc32)cc1 | < 10 |
| CCOC(=O)c1cccc(-n2nc(C(C)(C)C)cc2NC(=O)N[C@H]2CC[C@@H](Oc3ccc4nnc([C@@H]5CCCN5C)n4c3)c3ccccc32)c1 | < 10 |
| Cc1ccc(-n2nc(C(C)(C)C)cc2NC(=O)N[C@H]2CC[C@@H](Oc3ccc4nnc(C5CN(C)CCN5C)n4c3)c3ccccc32)cc1 (stereo partly drawn) | < 10 |
| Cc1ccc(-n2nc(C(C)(C)C)cc2NC(=O)N[C@H]2CC[C@@H](Oc3ccc4nnc([C@@H]5CCCN5)n4c3)c3ccccc32)cc1 | < 10 |
| C[C@H]1CCCCN1c1nnc2ccc(O[C@@H]3CC[C@H](NC(=O)Nc4cc(C(C)(C)C)nn4-c4ccnc(N(C)CCN(C)C)n4)c4ccccc43)cn12 | < 10 |
| Cc1ccc(-n2nc(C(C)(C)C)cc2NC(=O)N[C@H]2CC[C@@H](Oc3ccc4nnc(N5CCN(CCO)CC5)n4c3)c3ccccc32)cc1 | < 10 |
| CCN(CC)CCOc1cccc(-n2nc(C(C)(C)C)cc2NC(=O)N[C@H]2CC[C@@H](Oc3ccc4nnc(N5CCCC[C@@H]5C)n4c3)c3ccccc32)c1 | < 10 |
| Cc1ccc(-n2nc(C(C)(C)CO)cc2NC(=O)N[C@H]2CC[C@@H](Oc3ccc4nnc(N5CCCCC5)n4c3)c3ccccc32)cc1 | < 10 |
| C[C@@H]1CCC[C@H](C)N1c1nnc2ccc(O[C@@H]3CC[C@H](NC(=O)Nc4cc(C(C)(C)C)nn4-c4cccc(CN5CCN(C)CC5)c4)c4ccccc43)cn12 | < 10 |
| C[C@H]1CCCCN1c1nnc2ccc(O[C@@H]3CC[C@H](NC(=O)Nc4cc(C(C)(C)C)nn4-c4ccc(CN5CCC(F)CC5)cc4)c4ccccc43)cn12 | < 10 |
| CC(C)(C)c1cc(NC(=O)N[C@H]2CC[C@@H](Oc3ccc4nnc(N5CCCCC5)n4c3)c3ccccc32)n(-c2cccc(CN3CCCCC3)c2)n1 | < 10 |
| CN1CCC[C@H]1c1nnc2ccc(O[C@@H]3CC[C@H](NC(=O)Nc4cc(C(C)(C)C)nn4-c4cccc(CO)c4)c4ccccc43)cn12 | < 10 |
| Cn1cc(-n2nc(C(C)(C)C)cc2NC(=O)N[C@H]2CC[C@@H](Oc3ccc4nnc(N5CCCCC5)n4c3)c3ccccc32)cn1 | < 10 |
| CC(C)(C)c1cc(NC(=O)N[C@H]2CC[C@@H](Oc3ccc4nnc(N5CCCCC5)n4c3)c3ccccc32)n(-c2cnn(CCN3CCOCC3)c2)n1 | < 10 |

| SMILES | IC50 [nM] |
| --- | --- |
| CN1CCC[C@H]1c1nnc2ccc(O[C@@H]3CC[C@H](NC(=O)Nc4cc(C(C)(C)C)nn4-c4cccc(SCCO)c4)c4ccccc43)cn12 | < 10 |
| Cc1ccc(-n2nc(C(C)(C)C)cc2NC(=O)N[C@H]2CC[C@@H](Oc3ccc4nnc(N5CC[C@@H](O)C5)n4c3)c3ccccc32)cc1 | < 10 |
| Cc1ccc(-n2nc(C(C)(C)C)cc2NC(=O)N[C@H]2CC[C@@H](Oc3ccc4nnc(N5CCCC[C@H]5C)n4c3)c3ccccc32)cc1 | < 10 |
| C[C@H]1CCCCN1c1nnc2ccc(O[C@@H]3CC[C@H](NC(=O)Nc4cc(C(C)(C)C)nn4-c4cccc(CN5CCN(C)CC5)c4)c4ccccc43)cn12 | < 10 |
| Cc1ccc(-n2nc(C(C)(C)C)cc2NC(=O)N[C@H]2CC[C@@H](Oc3ccc4nnc(N5CCC(C(C)(C)O)CC5)n4c3)c3ccccc32)cc1 | < 10 |
| C[C@H]1CCCCN1c1nnc2ccc(O[C@@H]3CC[C@H](NC(=O)Nc4cc(C(C)(C)C)nn4C)c4ccccc43)cn12 | < 10 |
| Cc1ccc(-c2nc(C(C)(C)C)[nH]c2NC(=O)N[C@H]2CC[C@@H](Oc3ccc4nnc(N5CCCCC5)n4c3)c3ccccc32)cc1 | < 10 |
| Cc1ccc(-n2nc(C(C)(C)C)cc2NC(=O)N[C@H]2CC[C@@H](Oc3ccc4nnc(N(C)CCO)n4c3)c3ccccc32)cc1 | < 10 |
| CC(C)(C)c1cc(NC(=O)N[C@H]2CC[C@@H](Oc3ccc4nnc(N5CCCCC5)n4c3)c3ccccc32)n(-c2cccc(SCCO)c2)n1 | < 10 |
| COCCN(C)Cc1cccc(-n2nc(C(C)(C)C)cc2NC(=O)N[C@H]2CC[C@@H](Oc3ccc4nnc(N5CCCC[C@@H]5C)n4c3)c3ccccc32)c1 | < 10 |
| Cc1ccc(-n2nc(C(C)(C)C)cc2NC(=O)N[C@H]2CC[C@@H](OCCN3CCOCC3)c3ccccc32)cc1 | 100 to 500 |
| C[C@H]1CCCCN1c1nnc2ccc(O[C@@H]3CC[C@H](NC(=O)Nc4cc(C(C)(C)C)nn4-c4cccc(OCCN5CCCCC5)c4)c4ccccc43)cn12 | < 10 |
| C[C@H]1CCCCN1c1nnc2ccc(O[C@@H]3CC[C@H](NC(=O)Nc4cc(C(C)(C)C)nn4-c4cccc(CCN5CCCCC5)c4)c4ccccc43)cn12 | < 10 |
| Cc1ccc(-n2nc(C(C)(C)C)cc2NC(=O)N[C@H]2CC[C@@H](Oc3ccc4nnc(-c5ccc(CN6CCOCC6)nc5)n4c3)c3ccccc32)cc1 | 10 to 100 |
| CCN1CCC[C@H]1c1nnc2ccc(O[C@@H]3CC[C@H](NC(=O)Nc4cc(C(C)(C)C)nn4-c4ccc(C)cc4)c4ccccc43)cn12 | < 10 |
| CCN(C)Cc1ccc(-n2nc(C(C)(C)C)cc2NC(=O)N[C@H]2CC[C@@H](Oc3ccc4nnc(N5CCCC[C@@H]5C)n4c3)c3ccccc32)cc1 | < 10 |
| Cc1ccc(-n2nc(C(C)(C)C)cc2NC(=O)N[C@H]2CC[C@@H](Oc3ccc4nnc(N5CCCOCC5)n4c3)c3ccccc32)cc1 | < 10 |
| C[C@H]1CCCCN1c1nnc2ccc(O[C@@H]3CC[C@H](NC(=O)Nc4cc(C(C)(C)C)nn4-c4cccc(OCCN5CCC(F)CC5)c4)c4ccccc43)cn12 | < 10 |
| CN(C)CCOc1cccc(-n2nc(C(C)(C)C)cc2NC(=O)N[C@H]2CC[C@@H](Oc3ccc4nnc(N5CCCCC5)n4c3)c3ccccc32)c1 | < 10 |
| Cc1ccc(-n2nc(C(C)(C)C)cc2NC(=O)N[C@H]2CC[C@@H](Oc3ccc4nnc([C@H]5CCCN5)n4c3)c3ccccc32)cc1 | < 10 |
| C[C@H]1CCCCN1c1nnc2ccc(O[C@@H]3CC[C@H](NC(=O)Nc4cc(C(C)(C)C)nn4-c4cccc(CN5CCCC5)c4)c4ccccc43)cn12 | < 10 |
